Assays:
Assay in all cases: combination Emax (second highest fraction inhibited in the dose matrix, 72 h); higher = more inhibition; extreme values may be limits of the assay
[1] = tested on: OV-56 (Ovarian Carcinoma)
Summary of the method: (§1)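 Bliss excess equals the observed combination effect minus the expected value EA + EB − EA·EB, where EA and EB are the effects of each agent alone. Combination Emax is the second-highest inhibition within the matrix. Inhibition was scaled from CellTiter-Glo 2.0 luminescence, with 0 set by vehicle wells and 1 by blank wells, after 72 hours of two-drug dosing of cells plated in 1536-well plates.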

[2] = tested on: OVCAR-5 (Ovarian Carcinoma)
Summary of the method: as §1

[3] = tested on: HH (T-Cell Non-Hodgkin's Lymphoma)
Summary of the method: as §1

[4] = tested on: LOXIMVI (Melanoma)
Summary of the method: as §1

[5] = tested on: MPP-89 (Mesothelioma)
Summary of the method: as §1

[6] = tested on: NCI-H2722 (Mesothelioma)
Summary of the method: as §1

[7] = tested on: BE2-M17 (Neuroblastoma)
Summary of the method: as §1

[8] = tested on: SNU-449 (Hepatocellular Carcinoma)
Summary of the method: as §1

[9] = tested on: FTC-133 (Thyroid Gland Carcinoma)
Summary of the method: as §1

[10] = tested on: MHH-CALL-2 (B-Lymphoblastic Leukemia)
Summary of the method: as §1

[11] = tested on: BPH-1 (Non-Cancerous)
Summary of the method: as §1

[12] = tested on: NCI-H524 (Small Cell Lung Carcinoma)
Summary of the method: as §1

[13] = tested on: Detroit562 (Head and Neck Carcinoma)
Summary of the method: as §1

[14] = tested on: CAL-33 (Oral Cavity Carcinoma)
Summary of the method: as §1

[15] = tested on: LNZTA3WT4 (Low Grade Glioma)
Summary of the method: as §1

[16] = tested on: HuH-7 (Hepatocellular Carcinoma)
Summary of the method: as §1

[17] = tested on: SNU-16 (Gastric Carcinoma)
Summary of the method: as §1

[18] = tested on: NCI-H1568 (Lung Adenocarcinoma)
Summary of the method: as §1

[19] = tested on: HeLa (Cervical Carcinoma)
Summary of the method: as §1

[20] = tested on: SW1573 (Lung Adenocarcinoma)
Summary of the method: as §1

Row | SMILES | combination Emax [1] | combination Emax [2] | combination Emax [3] | combination Emax [4] | combination Emax [5] | combination Emax [6] | combination Emax [7] | combination Emax [8] | combination Emax [9] | combination Emax [10] | combination Emax [11] | combination Emax [12] | combination Emax [13] | combination Emax [14] | combination Emax [15] | combination Emax [16] | combination Emax [17] | combination Emax [18] | combination Emax [19] | combination Emax [20]
1 | Cn1cnc2c(F)c(Nc3ccc(Br)cc3Cl)c(C(=O)NOCCO)cc21 [Selumetinib] + CCN(CCO)CCCOc1ccc2c(Nc3cc(CC(=O)Nc4cccc(F)c4)[nH]n3)ncnc2c1 [AZD2811] (first compound max 10 µM, 7x7, partner max 1 µM) | 0.116 | 0.507 | 0.173 | 0.683 | 0.204 | 0.186 | 0.644 | 0.221 | 0.415 | 0.888 | 0.624 | 0.955 | 0.743 | 0.653 | 0.226 | 0.293 | 0.561 | 0.207 | 0.171 | 0.251
2 | Cn1cnc2c(F)c(Nc3ccc(Br)cc3Cl)c(C(=O)NOCCO)cc21 [Selumetinib] + C[C@@H]1COCCN1C2=NC(=NC(=C2)C3(CC3)[S@](=N)(=O)C)C4=C5C=CNC5=NC=C4 [AZD6738] (first compound max 10 µM, 7x7, partner max 10 µM) | 0.29 | 0.671 | 0.175 | 0.778 | 0.329 | 0.277 | 0.83 | 0.111 | 0.724 | 0.951 | 0.503 | 0.681 | 0.88 | 0.826 | 0.712 | 0.374 | 0.966 | 0.574 | 0.486 | 0.284
3 | CC(=O)Nc1cccc(-n2c(=O)n(C3CC3)c(=O)c3c(Nc4ccc(I)cc4F)n(C)c(=O)c(C)c32)c1 [Trametinib] + Cc1nc(-c2cn3c(n2)-c2ccc(-c4cnn(C(C)(C)C(N)=O)c4)cc2OCC3)n(C(C)C)n1 [Taselisib] (first compound max 1 µM, 7x7, partner max 10 µM) | 0.607 | 0.905 | 0.524 | 1 | 0.796 | 0.666 | 0.994 | 0.559 | 0.338 | 0.662 | 0.94 | 0.829 | 0.954 | 0.989 | 0.671 | 0.977 | 0.955 | 0.763 | 0.42 | 0.407
4 | CC1(C)CCC(CN2CCN(c3ccc(C(=O)NS(=O)(=O)c4ccc(NCC5CCOCC5)c([N+](=O)[O-])c4)c(Oc4cnc5[nH]ccc5c4)c3)CC2)=C(c2ccc(Cl)cc2)C1 [Venetoclax] + C1CN(CCC1(C(=O)N[C@@H](CCO)C2=CC=C(C=C2)Cl)N)C3=NC=NC4=C3C=CN4 [Capivasertib] (first compound max 1 µM, 7x7, partner max 3 µM) | 0.153 | 0.262 | 0.44 | 0.247 | 0.375 | 0.162 | 0.254 | 0.222 | 0.358 | 0.106 | 0.382 | 0.166 | 0.346 | 0.276 | 0.508 | 0.17 | 0.189 | 0.133 | 0.22 | 0.257
5 | CC1(C)CCC(CN2CCN(c3ccc(C(=O)NS(=O)(=O)c4ccc(NCC5CCOCC5)c([N+](=O)[O-])c4)c(Oc4cnc5[nH]ccc5c4)c3)CC2)=C(c2ccc(Cl)cc2)C1 [Venetoclax] + C=CCn1c(=O)c2cnc(Nc3ccc(N4CCN(C)CC4)cc3)nc2n1-c1cccc(C(C)(C)O)n1 [AZD1775] (first compound max 1 µM, partner max 1 µM) | 0.168 | 0.75 | 0.766 | 0.622 | 0.841 | 0.311 | 0.825 | 0.239 | 0.86 | 0.681 | 0.377 | 0.895 | 0.545 | 0.761 | 0.917 | 0.386 | 0.912 | 0.479 | 0.573 | 0.407
6 | CC1(C)CCC(CN2CCN(c3ccc(C(=O)NS(=O)(=O)c4ccc(NCC5CCOCC5)c([N+](=O)[O-])c4)c(Oc4cnc5[nH]ccc5c4)c3)CC2)=C(c2ccc(Cl)cc2)C1 [Venetoclax] + CCN(CCO)CCCOc1ccc2c(Nc3cc(CC(=O)Nc4cccc(F)c4)[nH]n3)ncnc2c1 [AZD2811] (first compound max 1 µM, 7x7, partner max 1 µM) | 0.195 | 0.315 | 0.18 | 0.21 | 0.284 | 0.23 | 0.515 | 0.239 | 0.495 | 0.292 | 0.416 | 0.985 | 0.52 | 0.594 | 0.487 | 0.194 | 0.523 | 0.209 | 0.279 | 0.286
7 | CC1(C)CCC(CN2CCN(c3ccc(C(=O)NS(=O)(=O)c4ccc(NCC5CCOCC5)c([N+](=O)[O-])c4)c(Oc4cnc5[nH]ccc5c4)c3)CC2)=C(c2ccc(Cl)cc2)C1 [Venetoclax] + CN(C)CCCOc1ccc(-c2ccc3ncc4c(c3c2)n(C2CCOCC2)c(=O)n4C)cn1 [AZD0156] (first compound max 1 µM, 7x7, partner max 1 µM) | 0.183 | 0.405 | 0.18 | 0.588 | 0.408 | 0.175 | 0.238 | 0.243 | 0.167 | 0.153 | 0.254 | 0.321 | 0.212 | 0.178 | 0.4 | 0.26 | 0.152 | 0.319 | 0.188 | 0.201
8 | CC1(C)CCC(CN2CCN(c3ccc(C(=O)NS(=O)(=O)c4ccc(NCC5CCOCC5)c([N+](=O)[O-])c4)c(Oc4cnc5[nH]ccc5c4)c3)CC2)=C(c2ccc(Cl)cc2)C1 [Venetoclax] + COc1cc(Nc2ncc3c(n2)-c2ccc(Cl)cc2C(c2c(F)cccc2OC)=NC3)ccc1C(=O)O [Alisertib] (first compound max 1 µM, 7x7, partner max 10 µM) | 0.225 | 0.335 | 0.222 | 0.5 | 0.566 | 0.281 | 0.901 | 0.313 | 0.416 | 0.733 | 0.745 | 0.991 | 0.754 | 0.714 | 0.472 | 0.791 | 0.955 | 0.259 | 0.702 | 0.168
9 | CC1(C)CCC(CN2CCN(c3ccc(C(=O)NS(=O)(=O)c4ccc(NCC5CCOCC5)c([N+](=O)[O-])c4)c(Oc4cnc5[nH]ccc5c4)c3)CC2)=C(c2ccc(Cl)cc2)C1 [Venetoclax] + C[C@@H]1COCCN1C2=NC(=NC(=C2)C3(CC3)[S@](=N)(=O)C)C4=C5C=CNC5=NC=C4 [AZD6738] (first compound max 1 µM, 7x7, partner max 10 µM) | 0.566 | 0.768 | 0.352 | 0.723 | 0.686 | 0.384 | 0.939 | 0.26 | 0.779 | 0.863 | 0.332 | 0.748 | 0.829 | 0.862 | 0.789 | 0.424 | 0.973 | 0.553 | 0.563 | 0.351
10 | CC1(C)CCC(CN2CCN(c3ccc(C(=O)NS(=O)(=O)c4ccc(NCC5CCOCC5)c([N+](=O)[O-])c4)c(Oc4cnc5[nH]ccc5c4)c3)CC2)=C(c2ccc(Cl)cc2)C1 [Venetoclax] + C[C@@H](Nc1cc(F)cc(F)c1)c1cc(C(=O)N(C)C)cc2c(=O)cc(N3CCOCC3)oc12 [AZD8186] (first compound max 1 µM, 7x7, partner max 3 µM) | 0.0859 | 0.214 | 0.434 | 0.129 | 0.236 | 0.17 | 0.276 | 0.172 | 0.182 | 0.294 | 0.31 | 0.535 | 0.137 | 0.149 | 0.185 | 0.144 | 0.251 | 0.0798 | 0.124 | 0.136
11 | CC1(C)CCC(CN2CCN(c3ccc(C(=O)NS(=O)(=O)c4ccc(NCC5CCOCC5)c([N+](=O)[O-])c4)c(Oc4cnc5[nH]ccc5c4)c3)CC2)=C(c2ccc(Cl)cc2)C1 [Venetoclax] + Cc1cc2ncnn2cc1Nc1ncc2c(n1)n(C1CCOCC1)c(=O)n2C [AZD7648] (first compound max 1 µM, 7x7, partner max 10 µM) | 0.15 | 0.339 | 0.273 | 0.254 | 0.418 | 0.25 | 0.276 | 0.229 | 0.182 | 0.17 | 0.232 | 0.308 | 0.304 | 0.329 | 0.385 | 0.221 | 0.223 | 0.135 | 0.199 | 0.144
12 | CC1(C)CCC(CN2CCN(c3ccc(C(=O)NS(=O)(=O)c4ccc(NCC5CCOCC5)c([N+](=O)[O-])c4)c(Oc4cnc5[nH]ccc5c4)c3)CC2)=C(c2ccc(Cl)cc2)C1 [Venetoclax] + Cn1cnc2c(F)c(Nc3ccc(Br)cc3Cl)c(C(=O)NOCCO)cc21 [Selumetinib] (first compound max 1 µM, 7x7, partner max 3 µM) | 0.108 | 0.572 | 0.132 | 0.571 | 0.159 | 0.14 | 0.635 | 0.109 | 0.133 | 0.482 | 0.572 | 0.113 | 0.321 | 0.266 | 0.308 | 0.122 | 0.241 | 0.0499 | 0.103 | 0.0752
